Experimental data reported in the supplement of paper PMC10307832.

Legend:
Test in all cases: relative viability (nuclei count vs DMSO), 5 days (fraction); higher = more cells survive
Alpelisib + Dasatinib = compound: Cc1nc(NC(=O)N2CCC[C@H]2C(N)=O)sc1-c1ccnc(C(C)(C)C(F)(F)F)c1 [Alpelisib] + Cc1nc(Nc2ncc(C(=O)Nc3c(C)cccc3Cl)s2)cc(N2CCN(CCO)CC2)n1 [Dasatinib] (partner 0.075 µM)
Procedure, shortened: (§1)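 Values are medians from duplicate plates. Each reflects relative viability, defined as the nuclei count of treated wells over that of vehicle wells. Lung cancer cell lines in 1536-well plates were pin-tool dosed one day after seeding with one drug alone or with a fixed anchor-drug dose plus five library-drug doses (not always all listed) in √10 steps, then fixed, stained and imaged at 4× after 5 days.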

OSI-027 + Foretinib = compound: COc1cccc2cc(-c3nc([C@H]4CC[C@H](C(=O)O)CC4)n4ncnc(N)c34)[nH]c12 [OSI-027] + COc1cc2c(Oc3ccc(NC(=O)C4(C(=O)Nc5ccc(F)cc5)CC4)cc3F)ccnc2cc1OCCCN1CCOCC1 [Foretinib] (partner 0.25 µM)
Procedure, shortened: as §1

Alpelisib + Lapatinib = compound: Cc1nc(NC(=O)N2CCC[C@H]2C(N)=O)sc1-c1ccnc(C(C)(C)C(F)(F)F)c1 [Alpelisib] + CS(=O)(=O)CCNCc1ccc(-c2ccc3ncnc(Nc4ccc(OCc5cccc(F)c5)c(Cl)c4)c3c2)o1 [Lapatinib] (partner 2 µM)
Procedure, shortened: as §1

Alpelisib + Vorinostat = compound: Cc1nc(NC(=O)N2CCC[C@H]2C(N)=O)sc1-c1ccnc(C(C)(C)C(F)(F)F)c1 [Alpelisib] + O=C(CCCCCCC(=O)Nc1ccccc1)NO [Vorinostat] (partner 1 µM)
Procedure, shortened: as §1

Cell Line	relative viability (Alpelisib + Dasatinib; first compound 0.04 µM)	relative viability (Alpelisib + Dasatinib; first compound 0.1265 µM)	relative viability (Alpelisib + Dasatinib; first compound 0.4 µM)	relative viability (Alpelisib + Dasatinib; first compound 1.265 µM)	relative viability (Alpelisib + Dasatinib; first compound 4 µM)	relative viability (OSI-027 + Foretinib; first compound 0.01 µM)	relative viability (OSI-027 + Foretinib; first compound 0.03162 µM)	relative viability (OSI-027 + Foretinib; first compound 0.1 µM)	relative viability (OSI-027 + Foretinib; first compound 0.3162 µM)	relative viability (OSI-027 + Foretinib; first compound 1 µM)	relative viability (Alpelisib + Lapatinib; first compound 0.04 µM)	relative viability (Alpelisib + Lapatinib; first compound 0.1265 µM)	relative viability (Alpelisib + Lapatinib; first compound 0.4 µM)	relative viability (Alpelisib + Lapatinib; first compound 1.265 µM)	relative viability (Alpelisib + Lapatinib; first compound 4 µM)	relative viability (Alpelisib + Vorinostat; first compound 0.04 µM)	relative viability (Alpelisib + Vorinostat; first compound 0.1265 µM)	relative viability (Alpelisib + Vorinostat; first compound 0.4 µM)	relative viability (Alpelisib + Vorinostat; first compound 1.265 µM)	relative viability (Alpelisib + Vorinostat; first compound 4 µM)
LU99A	0.446	0.482	0.554	0.409	0.379	0.75	0.763	0.685	0.517	0.302	0.873	0.917	1.02	0.666	0.56	0.462	0.488	0.508	0.415	0.334
LXF-289	0.257	0.164	0.177	0.121	0.114	0.956	0.989	1.01	0.903	0.747	0.865	0.921	0.958	0.832	0.956	0.741	0.685	0.942	0.723	0.766
NCI-H23	0.818	0.65	0.702	0.535	0.418	0.908	0.937	0.929	0.653	0.464	1.09	0.845	1.04	0.621	0.839	0.634	0.441	0.411	0.414	0.332
NCI-H322M	0.225	0.223	0.257	0.253	0.273	0.942	0.93	0.764	0.654	0.517	0.535	0.666	0.518	0.361	0.423	0.897	0.962	0.954	0.733	0.634
NCI-H358	0.157	0.176	0.164	0.112	0.121	0.68	0.562	0.699	0.703	0.576	0.442	0.382	0.389	0.297	0.368	0.686	0.563	0.768	0.428	0.321
NCI-H460	0.42	0.484	0.457	0.245	0.174	1.06	0.762	1	0.948	0.582	1.02	0.948	1.03	0.662	0.439	0.717	0.788	0.938	0.564	0.434
NCI-H520	0.184	0.218	0.153	0.174	0.149	0.894	0.796	0.59	0.333	0.31	0.712	0.765	0.906	0.669	0.631	0.611	0.743	0.629	0.603	0.463
NCI-H596	0.564	0.67	0.578	0.337	0.385	0.834	0.923	0.781	0.59	0.602	0.98	1.02	0.825	0.54	0.413	0.484	0.837	0.629	0.328	0.267
NCI-H647	0.228	0.163	0.214	0.0992	0.123	1.39	1.14	1.28	1.01	0.575	0.959	1.14	1.35	0.99	0.756	0.772	0.608	0.613	0.263	0.427
NCI-H650	0.417	0.38	0.449	0.395	0.288	1.08	1.09	1.01	0.868	0.514	0.84	0.538	0.876	0.683	0.869	0.394	0.314	0.538	0.35	0.325
NCI-H661	0.845	0.745	0.8	0.569	0.526	0.984	0.893	1.03	0.975	0.599	0.471	0.475	0.525	0.383	0.361	0.765	0.795	0.819	0.755	0.728
NCI-H727	0.424	0.326	0.476	0.313	0.272	0.601	1.03	0.863	0.812	0.398	0.831	0.766	0.906	0.578	0.443	1.1	1.2	1.07	1.06	0.848
NCI-H838	0.275	0.375	0.296	0.228	0.215	1.04	0.827	0.901	0.568	0.416	0.877	1.03	1.01	0.774	0.696	0.675	0.697	0.72	0.642	0.606
NCI-H1355	0.708	0.551	0.699	0.434	0.443	1.01	0.784	0.928	0.763	0.33	0.963	0.961	0.985	0.918	0.806	0.626	0.609	0.677	0.529	0.398
NCI-H1395	0.461	0.376	0.457	0.356	0.394	0.965	0.903	0.959	0.847	0.637	0.88	0.909	1.15	0.75	0.921	0.742	0.565	0.773	0.62	0.537
NCI-H1437	0.368	0.338	0.358	0.309	0.342	1.27	1.26	1.34	1.28	0.691	0.756	0.91	0.772	0.616	0.602	0.886	0.886	0.963	0.734	0.692
